In ChEMBL document CHEMBL1130277, “Three-dimensional quantitative structure-activity relationships from molecular similarity matrices and genetic neural networks. 2. Applications” (J Med Chem, 1997):

Key:
Leishmania amazonensis = test: Inhibition on leishmania mexicana amazonensis.; format: functional, organism-based
[1] = biological target: GABA-A receptor; anion channel
Description: Inhibition on Benzodiazepine receptor

Row | IC50 (Leishmania amazonensis) [µM] | pIC50 [1] | Compound
1 | 703 |  | N=C(N)c1ccc(OCCCCCOc2ccc(C(=N)N)cc2Cl)c(Cl)c1
2 | 1590 |  | N=C(N)c1ccc(OCCCCOc2ccc(C(=N)N)cc2)cc1
3 | 396 |  | N=C(N)c1ccc(OCCCCCCOc2ccc(C(=N)N)cc2)cc1 [HEXAMIDINE]
4 | 5430 |  | N=C(N)c1cccc(OCCCCOc2cccc(C(=N)N)c2)c1
5 | 1040 |  | N=C(N)c1cccc(OCCCCCCOc2cccc(C(=N)N)c2)c1
6 | 22600 |  | N=C(N)c1ccc(OCCOc2ccc(C(=N)N)cc2N)c(N)c1
7 | 10000 |  | COc1cc(C(=N)N)ccc1OCCCCOc1ccc(C(=N)N)cc1OC
8 | 289 |  | N=C(N)c1ccc(NCCCCCCNc2ccc(C(=N)N)cc2)cc1
9 | 820 |  | N=C(N)c1ccc(OCCCCCOc2ccc(C(=N)N)cc2)cc1 [PENTAMIDINE]
10 | 1160 |  | N=C(N)c1ccc(NCCCCCNc2ccc(C(=N)N)cc2N)c(N)c1
11 | 1790 |  | COc1cc(C(=N)N)ccc1OCCCOc1ccc(C(=N)N)cc1OC
12 | 558 |  | N=C(N)c1ccc(NCCCCCNc2ccc(C(=N)N)cc2)cc1
13 | 7570 |  | N=C(N)c1ccc(OCCCCOc2ccc(C(=N)N)cc2N)c(N)c1
14 | 26200 |  | N=C(N)c1ccc(NCCNc2ccc(C(=N)N)cc2N)c(N)c1
15 | 1330 |  | N=C(N)c1ccc(OCCCCOc2ccc(C(=N)N)cc2Cl)c(Cl)c1
16 | 678 |  | N=C(N)c1ccc(OCCCCCOc2ccc(C(=N)N)cc2Br)c(Br)c1
17 | 15800 |  | N=C(N)c1ccc(OCCOc2ccc(C(=N)N)cc2)cc1
18 | 7870 |  | N=C(N)c1ccc(NCCCCNc2ccc(C(=N)N)cc2N)c(N)c1
19 | 991 |  | N=C(N)c1ccc(NCCCCCCNc2ccc(C(=N)N)cc2N)c(N)c1
20 | 2130 |  | N=C(N)c1cccc(OCCCCCOc2cccc(C(=N)N)c2)c1
21 | 3500 |  | N=C(N)c1ccc(OCCCOc2ccc(C(=N)N)cc2N)c(N)c1
22 | 3030 |  | COc1cc(C(=N)N)ccc1OCCCCCOc1ccc(C(=N)N)cc1OC
23 | 851 |  | N=C(N)c1ccc(OCCCOc2ccc(C(=N)N)cc2)cc1 [PROPAMIDINE]
24 | 687 |  | N=C(N)c1ccc(NCCCNc2ccc(C(=N)N)cc2)cc1
25 | 671 |  | N=C(N)c1ccc(NCCCCNc2ccc(C(=N)N)cc2)cc1
26 | 6100 |  | N=C(N)c1cccc(OCCCOc2cccc(C(=N)N)c2)c1

The remaining lines, values behind:

Row | Compound | IC50 (Leishmania amazonensis) [µM] | pIC50 [1]
27 | COc1cc(C2=NCCN2)ccc1OCCCOc1ccc(C2=NCCN2)cc1OC | 2260 | 
28 | COc1cc(C2=NCCN2)ccc1OCCCCCOc1ccc(C2=NCCN2)cc1OC | 4040 | 
29 | N=C(N)c1ccc(NCCCCCNc2ccc(C(=N)N)cc2[N+](=O)[O-])c([N+](=O)[O-])c1 | 1130 | 
30 | c1cc(C2=NCCN2)ccc1OCCCOc1ccc(C2=NCCN2)cc1 | 1770 | 
31 | N=C(N)c1ccc(NCCCNc2ccc(C(=N)N)cc2[N+](=O)[O-])c([N+](=O)[O-])c1 | 4830 | 
32 | CCc1nc(C(=O)OC)cc2c1[nH]c1ccccc12 |  | 5.12
33 | Cc1cccc2[nH]c3c4c5ccccc5nc-4c[nH]c3c12 |  | 5.16
34 | Cc1ccc2[nH]c3c4c5ccccc5nc-4c[nH]c3c2c1 |  | 6.65
35 | Cn1c2ccccc2c2[nH]cc3nc4ccccc4c-3c21 |  | 6.8
36 | CCCCOc1cc2c(cn1)[nH]c1ccccc12 |  | 7.01
37 | CCOc1cc2c(cn1)[nH]c1ccccc12 |  | 7.62
38 | Clc1cc2c(cn1)[nH]c1ccccc12 |  | 7.35
39 | CCOC(=O)c1cc2c(cn1)sc1ccccc12 |  | 5.77
40 | CCCCc1cc2c(cn1)[nH]c1ccccc12 |  | 6.64
41 | c1cc(C2=NCCN2)ccc1OCCCCOc1ccc(C2=NCCN2)cc1 | 2710 | 
42 | COc1cccc2[nH]c3c4c5ccccc5nc-4c[nH]c3c12 |  | 6.6
43 | CC(C)(C)OC(=O)c1cc2c3ccccc3nc-2c[nH]1 |  | 8

Row | Compound | IC50 (Leishmania amazonensis) [µM] | pIC50 [1]
44 | c1ccc2c(c1)[nH]c1c2ncc2[nH]c3ccccc3c21 |  | 8.4
45 | COc1cc(C2=NCCN2)ccc1OCCCCOc1ccc(C2=NCCN2)cc1OC | 6410 | 
46 | Cn1c2ccccc2c2c3[nH]c4ccccc4c3ncc21 |  | 5.93
47 | O=C1C2C=Nc3ccccc3C2=NN1c1ccc(Cl)cc1 (stereo not given) [CGS-9896] |  | 9.22
48 | CCOC(=O)c1cc2c(cn1)nc(O)c1ccccc12 |  | 5.62
49 | c1ccc2c(c1)[nH]c1cnccc12 [NORHARMANE] |  | 5.79
50 | c1cc(C2=NCCN2)ccc1OCCCCCOc1ccc(C2=NCCN2)cc1 | 1720 | 
51 | CC(C)(C)C(=O)c1cc2c3ccccc3nc-2c[nH]1 |  | 6.45
52 | N=C(N)c1ccc(OCCCCOc2ccc(C(=N)N)cc2[N+](=O)[O-])c([N+](=O)[O-])c1 | 5600 | 
53 | N=C(N)c1ccc(OCCOc2ccc(C(=N)N)cc2[N+](=O)[O-])c([N+](=O)[O-])c1 | 50000 | 
54 | c1ccc2c(c1)[nH]c1c2ccc2[nH]c3ccccc3c21 |  | 5.71
55 | Clc1cccc2[nH]c3c4c5ccccc5nc-4c[nH]c3c12 |  | 6.15
56 | N=C(N)c1ccc(OCCCCCOc2ccc(C(=N)N)cc2[N+](=O)[O-])c([N+](=O)[O-])c1 | 2000 | 
57 | O=[N+]([O-])c1cc2c3ccccc3nc-2c[nH]1 |  | 6.9
58 | CCCOc1cc2c(cn1)[nH]c1ccccc12 |  | 7.96
59 | CCOC(=O)c1cc2c(cn1)Cc1ccccc1-2 |  | 6.17
60 | CC(C)(C)COc1cc2c3ccccc3nc-2c[nH]1 |  | 7.02
